Assay results from publication PMC7667655, “Targeted Covalent Inhibition of Plasmodium FK506 Binding Protein 35” (ACS Medicinal Chemistry Letters, 2020).
pIC50: −log10 of the molar value. Values after ≈ are worked out from the molar mass of the structure shown. Like-named read-outs stand apart in the source and are kept apart here.

Assays:
PBS solubility = details: pH 7.4
[1] = biological target: T1, FBD35 (PfFKBP35 binding domain) (Plasmodium falciparum, UniProt Q8I4V8); assay: Differential scanning calorimetry, FBD35; details: read-out: FBD35 ΔTM
T1 construct: FKBP35 Q5 -A128; 6His-SUMO (N, cleaved yes); made in house; host or cells: E. coli BL21 DE3
T1 sequence (Q8I4V8 5-128): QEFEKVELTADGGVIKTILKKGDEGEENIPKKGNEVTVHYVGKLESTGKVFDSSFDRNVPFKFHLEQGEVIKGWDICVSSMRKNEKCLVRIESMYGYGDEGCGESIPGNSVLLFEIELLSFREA

FKBP12 [2] = biological target: T2, FKBP12 (Homo sapiens, UniProt P62942); assay: Differential scanning calorimetry, FKBP12; assay type: binding; details: compound 40 µM
T2 construct: 6His-SUMO (N, cleaved yes); made in house; host or cells: E. coli (identical protocol to FBD35, BL21 DE3)
T2 sequence (P62942 whole entry): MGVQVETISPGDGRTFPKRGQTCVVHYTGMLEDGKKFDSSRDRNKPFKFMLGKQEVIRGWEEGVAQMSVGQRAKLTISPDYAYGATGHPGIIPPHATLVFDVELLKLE

FKBP12 [3] = biological target: T2, FKBP12; assay: Fluorescence polarization competition, FKBP12; assay type: binding
[4] = biological target: T1, FBD35 (PfFKBP35 binding domain); assay: Fluorescence polarization competition, FBD35
nLuc-tagged FKBP12 = biological target: T3, nLuc-tagged FKBP12 (Homo sapiens, UniProt P62942); assay: NanoBRET cellular target engagement, nLuc-FKBP12; assay type: cell-based
T3 construct: full length Plasmodium falciparum FKBP35 and human FKBP12 DNA were; expressed in transfected cells
T3 sequence (P62942 whole entry): as above

FKBP35 = biological target: T4, FKBP35 (Plasmodium falciparum, UniProt Q8I4V8); assay: Time course of covalent modification by LC-MS; assay type: biochemical
T4 construct: FKBP35 Q5 -A128; 6His-SUMO (N, cleaved yes); made in house; host or cells: E. coli BL21 DE3
T4 sequence (Q8I4V8 5-128): as the sequence (Q8I4V8 5-128) above
Excerpt: RT=5.2). B. Overlay of mass determinations from LC traces in (A). FBD35 only (black, m/z = […]
chromatogram corresponding to Figure 4c detecting the CAM -peptide […] at […]
m/z 855.8668. D. Mass spec chromatogram corresponding to Figure 4d detecting the CAM - […]
peptide […] at m/z 855.8670. E. Mass spec chromatogram corresponding to Figure 4e which was unable to detect the mass of the 1c-inclusion peptide. F. Mass spec chromatogram corresponding to Figure 4f detecting the 1c-inclusion peptide […]
Figure S2. Time course of covalent modification. In order to compare rates of covalent modification, compounds 1a-c, 2a, and 2c were incubated with FKBP35 in a 5:1 ratio (2250 nM inhibitor : 450 nM FKBP35) and FKBP35 consumption or modification determined by LC -MS. A.
The concentration of residual FKBP35 as a function of time. Data was fit to an exponential “one phase decay” model which was used to calculate the rate (K) and half -life (t1/2) of the reaction.
The loss of FKBP35 in the DMSO and 1b controls is likely due to adsorption onto the vial. B.
Concentration of covalent adduct as a function of time. Data was fit to an “exponential plateau” regression model, which was used to calculate the rate of formation (K’). Compound 1b, which […]
C. Tabulated rates calculated from the regressions in A and B. The rates of FKBP35 consumption correlate strongly with the rates of […]
(also on this page, place not known: -inclusion 1c 0 20 40 60 0 200 400 600 Time (hours) FKBP35 (nM) Consumption of FKBP35 1a 1b 1c 2a 2c DMSO 0 20 40 60 0 200 400 600 Time (hours) Covalent Adduct (nM) Formation of Covalent Adduct 1a 1b 1c 2a 2c A B) […]
(1 picture or pasted object on this page, not shown here)
Experiments were performed using 0.4 mg/mL concentration of wild -type or mutant protein (6 - 9 uM), with and without synthes ized compounds at 40 µM and 2% DMSO (V/V). The respective reference scans were run under identical DSC conditions and subtracted from each sample scan.
The program was run in a continuous acquisition mode from 25°C to 90°C at a rate of 120C/h The heat capacity curves and midpoint temperature (Tm) were analyzed using Origin 7.0 software.
Fluorescence Polarization
The fluorescent tracer SLFb-2PEG-TAMRA was diluted in DMSO to 100 nM (100x stock concentration). FKBP proteins were diluted in assay buffer (150 mM NaCl, 20 mM HEPES pH 7.5, 0.002% Triton X -100) to the indicated concentration. 100x DMSO tracer stock was added to the protein buffer solution to a 1X final concentration and 20 µL of the mixture was aliquoted into each well of a black 384 -well assay plate (No. 3820, Corning Life Sciences). The plate was briefly centrifuged to remove bubbles. Using a d300e digital dispenser (Tecan), competitive ligands (10 mM stock in DMSO) were aliquoted in triplicate in an 8 -point 3x dilution series (30 µM to 13.7 nM final concentra tion) and normalized to 2% total DMSO concentration. Following incubation at room temperature (RT) for one hour, fluorescence polarization was measured using an EnVision Multimode Plate Reader (PerkinElmer) with the TAMRA Dual -FP mirror and filter kit. […]
analyzed in GraphPad Prism 8 by fitting the data to the “One Site – Fit Ki” model to obtain the […]
Time Course Analysis of Covalent Inhibition
The following analy sis was performed as described on two different days, yielding similar results.
One replicate is shown for clarity. In 1.5 mL snap -top tubes, ligands 1a, 1b, 1c, 2a, and 2c were each diluted to 450 μM in DMSO to produce 200x stock solutions. In a separate 1.5 mL snap-top tube, isolated FKBP35 protein was diluted to 90 μM in the reaction buffer (150 mM NaCl, 20 mM HEPES pH = 7.5) to produce a 200x stock solution. In 2 mL glass mass spec vials, 5 μL of each 200x ligand solution was diluted in 990 μL reaction buffer. Immediately prior to injection of each t=0 time point, 5 μL of the 200x protein solution was added to the mass spec vial and mixed. Samples were analyzed using the Waters BioAccord LC-ToF (composed of an ACQUITY I -Class UPLC and […]

[5] = biological target: T5, nLuc-tagged full length PfFKBP35 (Plasmodium falciparum, UniProt Q8I4V8); assay: NanoBRET cellular target engagement, nLuc-FKBP35; assay type: cell-based
T5 construct: nanoluciferase-tagged (nLuc) full length PfFKBP35 or nLuc-tagged FKBP12; expressed in transfected cells
T5 sequence (Q8I4V8 whole entry): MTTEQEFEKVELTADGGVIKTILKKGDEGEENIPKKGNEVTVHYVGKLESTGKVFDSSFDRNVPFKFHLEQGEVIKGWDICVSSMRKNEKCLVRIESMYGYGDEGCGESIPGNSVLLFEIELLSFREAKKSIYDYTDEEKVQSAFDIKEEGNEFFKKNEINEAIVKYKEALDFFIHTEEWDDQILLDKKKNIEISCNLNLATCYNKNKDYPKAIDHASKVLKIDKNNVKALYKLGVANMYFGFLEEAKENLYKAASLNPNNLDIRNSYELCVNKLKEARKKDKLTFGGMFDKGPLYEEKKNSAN

[6] = tested on: NF54 P. falciparum parasites; assay: P. falciparum strain NF54 growth-inhibition assay; assay type: cell-based; details: Plasmodium falciparum; luciferase reporter NF54 line, 72 h
Experimental: Figure 6 P. falciparum strain NF54 growth-inhibition assay. […] Proliferation was measured by luminescence after a complete life-cycle and normalized to DMSO (100%) and chloroquine (100 nM, 0%). (B) Structural differences between synthetic ligands and compound IC50s (μM).
Substrate and Extracellular NanoLuc® Inhibitor (Promega, cat. N2160) were diluted at 1:166 and 1:500, respectively, in Opti -MEM I Reduced Serum Media. 25 µL of this solution was added to each well and plate was read immediately using an EnVision Multimode Plate Reader (PerkinElmer). The BRET ratio was calculated using the following formula:
BRET ratio = acceptorsample – acceptorno tracer control donorsample donorno tracer control
NanoBRET Target Engagement Assay (384-well)
HEK293T cells stably expressing either nLuc-FKBP12 or nLuc-FKBP35 were plated at 0.2×10^6 cells/mL in white, clear -bottom 384-well plates (Sigma Aldrich) in Opti -MEM I Reduced Serum Media (ThermoFisher Scientific) using a Mutidrop Combi Reagent Dispenser (ThermoFisher Scientific). Cells were incubated overnight at 37 °C, 5% CO 2. Using a Tecan D300e, the Rap-Gly-BDP tracer was added to cells to 1 µM. Plates were shaken at 700 RPM on an orbital plate shaker and incubated at 37 °C, 5% CO 2 for 10 minutes. Test compounds were added at the indicated concentrations using a Tecan D300e. Plates were shaken at 700 RPM on an orbital plate shaker and incubated at 37 °C, 5% CO 2 for 2 hours. NanoBRET Nano -Glo Substrate and Extracellular NanoLuc® Inhibitor (Promega, cat. N2160) were diluted at 1:166 and 1:500, respectively, in Opti-MEM I Reduced Serum Media. 10 µL of this solution was added to each well and plate was read immediately using an EnVision Multimode Plate Reader (PerkinElmer). The BRET ratio was calculated using the above formula.
Parasite Culture and Inhibition
NF54 P. falciparum parasites constitutively expressing Renilla luciferase (RLuc) and Blasticidin-S deaminase under the PfHsp86 5’ and PfHRP2 3‘ regulatory sequences integrated in the cg6 chromosomal locus 4 were maintained continuous ly in media consisting of human erythrocytes at 2% haematocrit (O+) resuspended in RPMI 1640 (Gibco® 31800022) supplemented with 5% Albumax (Gibco® 11021045; complete medium) and 2.5 µg/mL of Blasticidin (RPI Corp B12150-0.1) in a gas mixture consisting of 5% CO2, 1% O2, and 94% N2 at 37 °C (Trager and Jensen 2005).
Parasitemia was determined every 48 h through microscopic examination of thin blood smears fixed in methanol, stained with 10% Giemsa solution, and sub-cultured to 0.5-1% parasitaemia.
Compound susceptibility assays
In 96-well round-bottom plates, sorbitol -synchronized cultures of ring-stage NF54 P. falciparum parasites were established in triplicate and treated with varying concentrations of the inhibitors (25-0.0038 μM) serially diluted in complete medium. Parasite proliferation rates were analyzed after 72 h using the Renilla-Glo Luciferase Assay, and luminescence was measured using the GloMax® Discover Microplate Reader. EC 50 values were obtained from corrected dose-response curves using GraphPad Prism (version 5; GraphPad Software). Data represent the mean % luminescence relative to 5% DMSO-treated (vehicle, 100% growth) and 100 nM chloroquine-treated (no growth) controls.
In black, clear-bottom 96-well plates (No. 3904 Corning Life Sciences), HEK293T cells were plated at 2x10^5 cells/mL in DMEM high glucose, pyruvate media (ThermoFisher Scientific, cat. 11995073) supplemented with 10% FBS and 1% pen -strep (100 μL final volume). Cells were incubated overnight at 37°C, 5% CO2. Using a Tecan D300e digital dispenser, cells were dosed in triplicate […]
concentration, 100 mM stock in DMSO) and Carfilzomib (10 µM to 4.6 nM final concentration, 10 mM stock in DMSO) normalizing DMSO to 0.25%. Cells were then incubated at 37 °C, 5% CO2 for 72 hours. Following incubation, cells were treated with 70 µL CellTiter-Glo® Luminescent Cell […]

[7] = read-out: FBD35 IC50, fluorescence polarization, competitive inhibition model, * incomplete displacement of fluorescent probe
[8] = differential scanning calorimetry, compound 40 µM
[9] = fluorescence polarization, competitive inhibition model, read-out: FKBP12 IC50

Row | Compound | solubility (PBS solubility) [µM] | ΔTm at 40 µM [1] [°C] | ΔTm at 40 µM (FKBP12 [2]) [°C] | pIC50 (FKBP12 [3]) | pIC50 (FKBP12 [3]; [9]) | pIC50 [4] | further results
1 | C=CC(=O)Nc1cccc([C@@H](CCc2ccc(OC)c(OC)c2)OC(=O)[C@@H]2CCCCN2C(=O)C(=O)c2cc(OC)c(OC)c(OC)c2)c1 [1e] | 3.1 (≈ 2.09 µg/mL) | 1.5 | 4.9 | 6.49 |  |  | pIC50 [4, 7]: < 4.52
2 | C=CC(=O)Nc1ccccc1[C@@H](CCc1ccc(OC)c(OC)c1)OC(=O)[C@@H]1CCCCN1C(=O)C(=O)c1cc(OC)c(OC)c(OC)c1 [1f] | 23 (≈ 15.5 µg/mL) |  | 1.4 |  | 5.49 |  | ΔTm at 40 µM [1, 8]: -1.3 °C; pIC50 [4, 7]: < 4.52
3 | C=CC(=O)NCC(C)(C)C(=O)C(=O)N1CCCC[C@H]1C(=O)O[C@H](CCc1ccc(OC)c(OC)c1)c1ccccc1 [2a] |  | 15.2 | 8.8 | 7.64 |  | 6.98 | pIC50 (nLuc-tagged FKBP12): 6.30; K, rate of FKBP35 consumption (FKBP35; 2250 nM inhibitor : 450 nM FKBP35, 23 °C, one phase decay fit): 0.05916 h⁻¹; K’, rate of covalent adduct formation (FKBP35; 2250 nM inhibitor : 450 nM FKBP35, exponential plateau fit): 0.04354 h⁻¹; pIC50 [5]: 5.87
4 | CCC(C)(C)C(=O)C(=O)N1CCCC[C@H]1C(=O)O[C@H](CCc1ccc(OC)c(OC)c1)c1cccc(N)c1 [SLF, reference compound] |  | 2.9 | 0.4 |  |  | 6.75 | 
5 | C=CC(=O)NCCCC(=O)N1CCCC[C@H]1C(=O)O[C@H](CCc1ccc(OC)c(OC)c1)c1ccccc1 [2e] |  | 13.8 | 7.9 | 5.49 |  | 5.58 | 
6 | CCC(=O)NCC(C)(C)C(=O)C(=O)N1CCCC[C@H]1C(=O)O[C@H](CCc1ccc(OC)c(OC)c1)c1ccccc1 [2b] |  | 4.3 | 7.7 | 7.40 |  | 7.04 | pIC50 (nLuc-tagged FKBP12): 6.38; pIC50 [5]: 5.73
7 | C=CC(=O)Nc1ccccc1C(=O)C(=O)N1CCCC[C@H]1C(=O)O[C@H](CCc1ccc(OC)c(OC)c1)c1ccccc1 [2f] |  |  | 0.2 |  | < 4.52 |  | ΔTm at 40 µM [1, 8]: 0.4 °C
8 | C=CC(=O)Nc1cc(OC)ccc1C(=O)C(=O)N1CCCC[C@H]1C(=O)O[C@H](CCc1ccc(OC)c(OC)c1)c1ccccc1 [2g] |  |  | 0.1 |  | < 4.52 |  | ΔTm at 40 µM [1, 8]: 0 °C
9 | C=CC(=O)OCC(C)(C)C(=O)C(=O)N1CCCC[C@H]1C(=O)O[C@H](CCc1ccc(OC)c(OC)c1)c1cccc(OCC(=O)O)c1 [2h] | 70 (≈ 44.8 µg/mL) | 16.3 | 6.2 | 7.42 |  | 6.86 | 
10 | C=CC(=O)Nc1ccc([C@@H](CCc2ccc(OC)c(OC)c2)OC(=O)[C@@H]2CCCCN2C(=O)C(=O)C(C)(C)CC)cc1 [1d] |  | 2.3 | 6 | 7.00 |  | 7.07 | 
11 | CCC(C)(C)C(=O)C(=O)N1CCCC[C@H]1C(=O)O[C@H](CCc1ccc(OC)c(OC)c1)c1cccc(OCC(=O)O)c1 [SLFb, reference compound] | 59 (≈ 34.4 µg/mL) | 2.8 | 6.6 |  | 7.57 | 6.12 | tracer displacement (in words), FKBP12 (nLuc-tagged FKBP12; NanoBRET, 2 h incubation): markedly reduced probe displacement; tracer displacement (in words), FKBP35 ([5]; NanoBRET, 2 h incubation): markedly reduced probe displacement; pIC50 [6]: 4.47
